Reference: patent US11135214B2, “Methods for enhancing the bio availability and exposure of a voltage-gated potassium channel opener” (priority 2018, dated 2021)
Where “and” joins values, the source holds several entries; their conditions need not be identical. Equal entries are not always repeated.

How the values were obtained:
cortical excitability = assay: TMS crossover study, TMS-induced oscillations; type: in vivo, human
Method: Before drug intake, at baseline, TMS induced an early increase of theta/alpha power followed by a beta power decrease (de-synchronization) and a final late response of increased beta power. The effects of the active compound on TMS-induced oscillations were then analysed by means of a cluster-based permutation analysis following the same procedure as adopted in the analysis of TEPs. Theta (4-7 Hz), alpha (8-12 Hz) and beta (13-30 Hz) TMS-induced oscillations were compared from 30 ms (the first time-frequency point considered artefact free) to 800 ms between drug conditions. This method was preferred instead of a predetermined set of time windows, given the absence of a consensus for time windows of interest to be used in the TMS induced oscillation analysis. Also, the present cluster-based statistics approach is appropriate for exploratory analyses, as it minimizes false-positives involved in testing multiple time-points.

[1] = TMS crossover study, pharmacokinetic analysis; type: in vivo, human; details: for extrapolated area (% AUCextrap): full PK data set; for Compound A Plasma Concentration: individual subjects
Method: A randomized, double-blind, placebo-controlled, transcranial magnetic stimulation (TMS) crossover study investigated the safety, tolerability, pharmacokinetics (PK), and pharmacodynamics (PD) of single doses of Compound A in healthy right-handed male subjects.
Twenty healthy right-handed male subjects were enrolled and randomized in a blinded fashion to receive a single oral dose of 20 mg Compound A or placebo (1:1 randomization ratio) on Day 1, then were crossed over to receive a single dose of the other treatment on Day 7.
Subjects were screened within 27 days prior to entering the study on Day 1. For Period 1, subjects were admitted to the study unit and dosed on Day 1, and discharged on Day 2. For Period 2, following a washout of 6 days, the same subjects were again admitted to the study unit and dosed on Day 7, and discharged on Day 8. All subjects returned to the clinical unit for an outpatient visit on Day 14, and received a follow-up telephone call on Day 37.
Subjects were dosed in a fed state, but the timing of dosing relative to meals was changed during the study, and varied between a high fat or standard meal eaten either 2 h or 30 minutes prior to dosing, and a high fat or standard meal eaten 1 h or 2.5 h after dosing.
The PK parameters for this study were summarized in two ways. Firstly, PK parameters were calculated where possible using the PK samples collected during each 24 h sampling period for Period 1 and Period 2 separately. Secondly, PK parameters were determined using samples beyond the 24 h sampling period (i.e., from Day 7/8 and/or Day 14). For subjects who received Compound A in the first period, PK samples taken prior to placebo treatment provided additional PK timepoints at >24 h. For subjects who received Compound A in the second period, there was no >24 h PK timepoint until a Day 14 PK sample was added. […] The full PK profile data set consists of the 16 subjects for whom PK samples were taken at >24 h post-dose. For discussion of the PK parameters below, the full PK profile data set was generally used, because it allowed more accurate estimation of PK parameters.
Initially, subjects were dosed 2 hours after a high fat meal with a relatively high fat lunch provided 1 hour after dosing. After blinded review of the PK profiles in the initial 8 subjects, the fat content of the lunch was reduced in an attempt to reduce the time to Tmax, so that the Cmax would fall within the timeframe of TMS measurements. In addition, the timing of the meal relative to dose was changed from 2 hours prior, to 30 minutes prior to dose and subsequently the fat content of the breakfast was reduced. All these changes were made in attempts to provide higher plasma levels during the TMS assessment periods. The timing and type of meal for each subject is specified in Table 13. […] As such the PK data is presented without categorization according to meal content, or relative timing of the meal.

[2] = at highest Compound A plasma concentration vs pre-dose
[3] = 20 mg, Full PK Profile Data Set (N=16), Range

Cc1cc(N2CCc3cc(F)ccc3C2)cc(C)c1NC(=O)CC(C)(C)C [Compound A, N-[4-(6-fluoro-3,4-dihydro-1H-isoquinolin-2-yl)-2,6-dimethylphenyl]-3,3-dimethylbutanamide]
Modulation of TMS-induced oscillations, Alpha (cortical excitability; 2 h after dosing vs pre-dose): Not significant
Modulation of TMS-induced oscillations, Beta (cortical excitability; 2 h after dosing vs pre-dose): Not significant
Modulation of TMS-induced oscillations, Theta (cortical excitability; 2 h after dosing vs pre-dose): Not significant
Modulation of TMS-induced oscillations, Alpha (cortical excitability; 4 h after dosing vs pre-dose): ↓ Alpha 250-390 ms
Modulation of TMS-induced oscillations, Beta (cortical excitability; 4 h after dosing vs pre-dose): ↑ Beta 250-330 ms
Modulation of TMS-induced oscillations, Theta (cortical excitability; 4 h after dosing vs pre-dose): ↓ Theta 30-180 ms
theta TMS-induced oscillations (cortical excitability; all available subjects, 2 h post-dose): trend to suppress
alpha TMS-induced oscillations (cortical excitability; all available subjects, 4 h, p=0.03, 250 to 400 ms): suppressed
theta induced oscillations (cortical excitability; all available subjects, 6 h, p=0.03, 80 to 300 ms): significant depression
alpha band TMS-induced oscillations (cortical excitability; all available subjects, 6 h, trend p=0.07, 270-390 ms): trend to suppress
Modulation of TMS-induced oscillations, Alpha (cortical excitability; [2]): ↓ Alpha 220-400 ms
Modulation of TMS-induced oscillations, Beta (cortical excitability; [2]): ↑ Beta 210-310 ms
Modulation of TMS-induced oscillations, Theta (cortical excitability; [2]): ↓ Theta 30-390 ms
early theta TMS-induced oscillations (cortical excitability; concentration analysis N=16, p<0.001, 30 to 390 ms): suppressed
alpha TMS-induced oscillations (cortical excitability; concentration analysis N=16, p=0.02, 220 to 400 ms): suppressed
beta TMS-induced power (cortical excitability; concentration analysis N=16, p=0.04, 220 to 310 ms): increased
TMS-induced oscillations (cortical excitability; subjects with drug exposure, 2 h post-dose): did not modulate oscillations
early theta TMS-induced oscillations (cortical excitability; subjects with drug exposure, 4 h, p=0.03, 30 to 180 ms): suppressed
alpha TMS-induced oscillations (cortical excitability; subjects with drug exposure, 4 h, p=0.03, 250 to 390 ms): suppressed
beta TMS-induced desynchronization (cortical excitability; subjects with drug exposure, 4 h, p=0.04, 250 to 330 ms): increased
theta induced oscillations (cortical excitability; subjects with drug exposure, 6 h, p<0.001, 30 to 280 ms): significant depression
time of median peak plasma concentrations after administration ([1]; 20 mg oral dose): approximately 8 hours
Tlast ([1]; 20 mg, Full PK Profile (N=16), Mean ± SD): 235 ± 81.5 h
Tlast ([1]; 20 mg, Full PK Profile (N=16), Range): 142 to 360 h
MRTinf [1, 3]: 33 ± 304 h
t1/2 [1, 3]: 48.2 ± 306 h
Tlast ([1]; 20 mg, Overall (N=20), Mean): 23.8 h
Tlast ([1]; 20 mg, Overall (N=20), Range): 23.1 to 24.3 h
Tlast ([1]; 20 mg, Period 1 (N=10), Mean): 23.8 h
Tlast ([1]; 20 mg, Period 1 (N=10), Range): 23.1 to 24.3 h
Tlast ([1]; 20 mg, Period 2 (N=10), Mean): 23.8 h
Tlast ([1]; 20 mg, Period 2 (N=10), Range): 23.5 to 24.1 h
% AUCextrap, highest values ([1]; 20 mg, a number of subjects above 20%): ≤ 40%
extrapolated area (% AUCextrap) ([1]; 20 mg, median): 19.9%
extrapolated area (% AUCextrap) ([1]; 20 mg, range): 10.6-40.5%
Compound A Plasma Concentration ([1]; Compound A Treatment Period, 20 mg, 2 h, 5 minutes before TMS): 47.2 ng/mL and 1.55 ng/mL and 34 ng/mL and 0 ng/mL (5×) and 55.2 ng/mL and 10.6 ng/mL and 47.1 ng/mL and 3.1 ng/mL and 1.95 ng/mL and 25.7 ng/mL and 2.74 ng/mL and 10.7 ng/mL and 2.52 ng/mL and 8.01 ng/mL
Compound A Plasma Concentration ([1]; Compound A Treatment Period, 20 mg, 4 h, 5 minutes before TMS): 38.7 ng/mL and 8.92 ng/mL and 48.4 ng/mL and 16.5 ng/mL and 50 ng/mL and 24.5 ng/mL and 38 ng/mL and 4.91 ng/mL and 2.54 ng/mL and 29.8 ng/mL and 4.06 ng/mL and 60.7 ng/mL and 22.3 ng/mL and 32.7 ng/mL and 52.1 ng/mL and 8.77 ng/mL and 41.9 ng/mL
Compound A Plasma Concentration ([1]; Compound A Treatment Period, 20 mg, 6 h, 5 minutes before TMS): 49.7 ng/mL and 71.2 ng/mL and 48.5 ng/mL and 47.0 ng/mL and 39.1 ng/mL and 37.6 ng/mL and 4.43 ng/mL and 51.9 ng/mL and 6.23 ng/mL and 57.6 ng/mL and 53.2 ng/mL and 54.9 ng/mL and 52.2 ng/mL and 25.1 ng/mL and 79.4 ng/mL
Compound A Plasma Concentration ([1]; Placebo Treatment Period (carry-over), 2 h): 0 ng/mL (9×) and 4.96 ng/mL and 5.27 ng/mL and 6.28 ng/mL and 3.81 ng/mL and 5.74 ng/mL and 3.94 ng/mL and 7.44 ng/mL and 8.04 ng/mL
Compound A Plasma Concentration ([1]; Placebo Treatment Period (carry-over), 4 h): 0 ng/mL (9×) and 4.35 ng/mL and 4.48 ng/mL and 5.51 ng/mL and 3.6 ng/mL and 5.36 ng/mL and 3.66 ng/mL and 6.83 ng/mL and 8.15 ng/mL
Compound A Plasma Concentration ([1]; Placebo Treatment Period (carry-over), 6 h): 0 ng/mL (8×) and 5.56 ng/mL and 5.75 ng/mL and 3.42 ng/mL and 5.61 ng/mL and 3.44 ng/mL and 6.67 ng/mL and 8.22 ng/mL
Average high concentration of Compound A ([1]; during TMS assessment (FIG. 11, 12)): 45 ng/mL
concentration at 2 h ([1]; male, human, plasma, oral, 20 mg, Compound A Treatment Period, 2 h, Mean): 15.9 ng/mL
concentration at 4 h ([1]; male, human, plasma, oral, 20 mg, Compound A Treatment Period, 4 h, Mean): 30.1 ng/mL
concentration at 6 h ([1]; male, human, plasma, oral, 20 mg, Compound A Treatment Period, 6 h, Mean): 42.1 ng/mL
half-life ([1]; male, human, plasma, oral, 20 mg, Full PK Profile (N=16), Mean ± SD): 127 ± 84.6 h
AUC(0-t) ([1]; male, human, plasma, oral, 20 mg, Full PK Profile (N=16), Mean ± SD, read-out: AUC0-24): 692 ± 151 ng·h/mL
Cmax ([1]; male, human, plasma, oral, 20 mg, Full PK Profile (N=16), Mean ± SD, read-out: Cmax): 60.1 ± 14.9 ng/mL
